Results from patent US20250122192A1, “5-PYRIMIDINECARBOXAMIDE DERIVATIVES AND METHODS OF USING THE SAME” (Rgenta Therapeutics, Inc., priority 2021, published 2025).
Structures can show the parent of a compound that is named as a salt.

What follows are molecules tested on PMS1 (assay: Mini-gene reporter assay-PMS1). Details: Homo sapiens, HEK293, PMS1 mini-gene firefly luciferase reporter transiently transfected into HEK293 cells; read-out: PMS1 IC50.
Assay type: cell-based
Summary of the method: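 Compound dilution series in duplicate added to transiently transfected HEK293 reporter cells, then incubated; EC50 from Levenberg-Marquardt fit of luminescence. The reporter joins the alternatively skipped exon, its neighbouring introns and exons to firefly luciferase, so induced inclusion gives more signal.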
In the case of CCOc1nc(N2CCNC3(CC3)C2)ncc1C(=O)Nc1cc(F)c2nc(C)cn2c1 [Compound 296, 4-ethoxy-N-(8-fluoro-2-methylimidazo[1,2-a]pyridin-6-yl)-2-(4,7-diazaspiro[2.5]octan-7-yl)pyrimidine-5-carboxamide 2,2,2-trifluoroacetate], the IC50 is reported as > 3000 nM.
Work on CCOc1nc(N2CCN(C3CNC3)CC2)ncc1C(=O)Nc1cc(F)c2nc(C)cn2c1 [Compound 221] yielded an IC50 of 1000 to 3000 nM.
With CCOc1nc(N2C[C@@H]3CNC[C@]3(C)C2)ncc1C(=O)Nc1cc(F)c2nc(C)cn2c1 (racemic) [Compound 179] the IC50 was < 500 nM.
CCOc1nc(N2CC(C)CNC(C)C2)ncc1C(=O)Nc1cc(F)c2nc(C)cn2c1 (centres unmarked) [Compound 131] showed an IC50 of 500 to 1000 nM.
CCOc1nc(N2CCC(N3CCNCC3)C2)ncc1C(=O)Nc1cc(F)c2nc(C)cn2c1 (centres unmarked) [Compound 107] gave an IC50 of 1000 to 3000 nM.
CCOc1nc(N2CCN(C)CC2)ncc1C(=O)Nc1cc(F)c2nc(C)cn2c1 [Compound 6, 4-ethoxy-N-{8-fluoro-2-methylimidazo[1,2-a]pyridin-6-yl}-2-(4-methylpiperazin-1-yl)pyrimidine-5-carboxamide] showed an IC50 of 1000 to 3000 nM.
For CCOc1nc(N2CC(NC)C2)ncc1C(=O)Nc1cc(F)c2nn(C)cc2c1 [Compound 254, 4-ethoxy-N-(7-fluoro-2-methyl-2H-indazol-5-yl)-2-(3-(methylamino)azetidin-1-yl)pyrimidine-5-carboxamide hydrochloride], the IC50 was > 3000 nM.
CCOc1nc(N2CC[C@@H]3NCC[C@@H]3C2)ncc1C(=O)Nc1cc(F)c2nc(C)cn2c1 (racemic) [Compound 199] was tested, and the IC50 was < 500 nM.
With CCOc1nc(N2CCNCC3(CC3)C2)ncc1C(=O)Nc1cc(F)c2nc(C)cn2c1 [Compound 116] the IC50 was < 500 nM.
For CCOc1nc(N2CC3(CNCCO3)C2)ncc1C(=O)Nc1cn2cc(C)nc2c(C)n1 [Compound 104], the IC50 was > 3000 nM.
For CCOc1nc(N2CCC(NC)C2)ncc1C(=O)Nc1cnc2nn(C)cc2c1 (centres unmarked) [Compound 276, 4-ethoxy-N-(2-methyl-2H-pyrazolo[3,4-b]pyridin-5-yl)-2-(3-(methylamino)pyrrolidin-1-yl)pyrimidine-5-carboxamide formate], the IC50 was > 3000 nM.
With CCOc1nc(N2CCN[C@H](C)C2)ncc1C(=O)Nc1cc(F)c2nc(C)oc2c1 [Compound 13] the IC50 was 500 to 1000 nM.
With CCOc1nc(N2CCNC3CC32)ncc1C(=O)Nc1cc(F)c2nc(C)cn2c1 (centres unmarked) [Compound 192] the IC50 was 500 to 1000 nM.
In the case of CCOc1nc(N2CCNC(CF)C2)ncc1C(=O)Nc1cc(F)c2nc(C)cn2c1 (centres unmarked) [Compound 111], the IC50 is reported as > 3000 nM.
CCOc1nc(N2CCC(CNC)C2)ncc1C(=O)Nc1cn2cc(C)nc2c(C)n1 (centres unmarked) [Compound 62] was tested, and the IC50 was < 500 nM.
For CCOc1nc(N2CC[C@H](NC)C2)ncc1C(=O)Nc1cc(F)c2nc(C)cn2c1 (single isomer, unassigned) [Compound 312, hydrochloride], the IC50 was < 500 nM.
CCOc1nc(N(CC)C2CCCNCC2)ncc1C(=O)Nc1cc(F)c2nc(C)cn2c1 (centres unmarked) [Compound 168] was tested, and the IC50 was < 500 nM.
CC(C)COc1nc(N2CCNCC2)ncc1C(=O)Nc1cc(F)c2nn(C)cc2c1 [Compound 306, N-(7-fluoro-2-methyl-2H-indazol-5-yl)-4-isobutoxy-2-(piperazin-1-yl)pyrimidine-5-carboxamide formate] was tested, and the IC50 was 1000 to 3000 nM.
For CCOc1nc(N2CCC(NC)CC2)ncc1C(=O)Nc1cn2cc(C)nc2c(C)n1 [Compound 39], the IC50 was < 500 nM.
In the case of CCOc1nc(N2CC(C)NCC2C)ncc1C(=O)Nc1cc(F)c2nc(C)cn2c1 (centres unmarked) [Compound 230], the IC50 is reported as < 500 nM.
Work on CCOc1nc(N2C3CCCC2CNC3)ncc1C(=O)Nc1cc(F)c2nc(C)cn2c1 [Compound 130] yielded an IC50 of 1000 to 3000 nM.
CCOc1nc(N2CCNC(CC(F)F)C2)ncc1C(=O)Nc1cc(F)c2nc(C)cn2c1 (centres unmarked) [Compound 110] gave an IC50 of 1000 to 3000 nM.
In the case of CCN(c1ncc(C(=O)Nc2cn3cc(C)nc3c(C)n2)c(COC)n1)C1CCNCC1 [Compound 36], the IC50 is reported as < 500 nM.
For CCOc1nc(N2CCC(CNC(C)C)CC2)ncc1C(=O)Nc1cc(F)c2nc(C)cn2c1 [Compound 119], the IC50 was < 500 nM.
For CCOc1nc(N2CCN(C3CCNCC3)CC2)ncc1C(=O)Nc1cc(F)c2nc(C)cn2c1 [Compound 137], the IC50 was > 3000 nM.
Work on CCOc1nc(N2CCCC(C3CCCNC3)C2)ncc1C(=O)Nc1cc(F)c2nc(C)cn2c1 (centres unmarked) [Compound 184] yielded an IC50 of 500 to 1000 nM.
In the case of CCOc1nc(N2CC3CCNCC32)ncc1C(=O)Nc1cn2cc(C)nc2c(C)n1 (centres unmarked) [Compound 48], the IC50 is reported as > 3000 nM.
CCOc1nc(N2CCC3CCCC(C2)N3)ncc1C(=O)Nc1cc(F)c2nc(C)cn2c1 (centres unmarked) [Compound 126] was tested, and the IC50 was 1000 to 3000 nM.
In the case of CCOc1nc(N2CC3(CC(NC(C)C)CO3)C2)ncc1C(=O)Nc1cc(F)c2nc(C)cn2c1 (centres unmarked) [Compound 248], the IC50 is reported as < 500 nM.
Molecule CCOc1nc(N2C[C@]3(C)CNC[C@]3(C)C2)ncc1C(=O)Nc1cc(F)c2nc(C)cn2c1 [Compound 148] has an IC50 of 1000 to 3000 nM.
With CCOc1nc(N2CCC(N3CCNCC3)CC2)ncc1C(=O)Nc1cc(F)c2nc(C)cn2c1 [Compound 222] the IC50 was 1000 to 3000 nM.
CCOc1nc(N2CC[C@@H]3NCCC[C@@H]3C2)ncc1C(=O)Nc1cc(F)c2nc(C)cn2c1 (racemic) [Compound 139] was tested, and the IC50 was < 500 nM.
In the case of CCOc1nc(N2CCCNCC2)ncc1C(=O)Nc1cc(F)c2nc(C)cn2c1 [Compound 15, 2-(1,4-diazepan-1-yl)-4-ethoxy-N-{8-fluoro-2-methylimidazo[1,2-a]pyridin-6-yl}pyrimidine-5-carboxamide], the IC50 is reported as < 500 nM.
In the case of CCOc1nc(N2CC[C@H](CNC)C2)ncc1C(=O)Nc1cc(F)c2nc(C)cn2c1 [Compound 297, (R)-4-ethoxy-N-(8-fluoro-2-methylimidazo[1,2-a]pyridin-6-yl)-2-(3-((methylamino)methyl)pyrrolidin-1-yl)pyrimidine-5-carboxamide 4-methylbenzenesulfonate], the IC50 is reported as < 500 nM.
In the case of CCOc1nc(NC2CCNCC2)ncc1C(=O)Nc1cn2cc(C)nc2c(C)n1 [Compound 251, N-(2,8-dimethylimidazo[1,2-a]pyrazin-6-yl)-4-ethoxy-2-(piperidin-4-ylamino) pyrimidine-5-carboxamide formate], the IC50 is reported as 1000 to 3000 nM.
For CCNC1COC2(C1)CN(c1ncc(C(=O)Nc3cn4cc(C)nc4c(C)n3)c(OCC)n1)C2 (centres unmarked) [Compound 45], the IC50 was > 3000 nM.
With CCOc1nc(N2CC[C@@H](NC)C2)ncc1C(=O)Nc1cc(F)c2nn(C)cc2c1 [Compound 282, (R)-4-ethoxy-N-(7-fluoro-2-methyl-2H-indazol-5-yl)-2-(3-(methylamino)pyrrolidin-1-yl)pyrimidine-5-carboxamide formate] the IC50 was < 500 nM.
In the case of CCOc1nc(N2CC[C@H](NC)C2)ncc1C(=O)Nc1ccc2nc(C)cn2n1 [Compound 318], the IC50 is reported as > 3000 nM.
CCOc1nc(N(C)C2CCNCC2)ncc1C(=O)Nc1cc(F)c2nn(C)cc2c1 [Compound 275, 4-ethoxy-N-(7-fluoro-2-methyl-2H-indazol-5-yl)-2-(methyl(piperidin-4-yl)amino) pyrimidine-5-carboxamide formate] was tested, and the IC50 was < 500 nM.

Same assay, conditions: Homo sapiens; at 5 μM; PMS1 mini-gene firefly luciferase reporter in HEK293 cells; read-out: PMS1% Effect at 5 μM
In the case of CCOc1nc(N2CC[C@@H]3NCC(=O)N[C@@H]3C2)ncc1C(=O)Nc1cc(F)c2nc(C)cn2c1 (racemic) [Compound 170], the activation at 5 µM is reported as < 50%.
For CCOc1nc(N2CC(CO)C3(CCNCC3)C2)ncc1C(=O)Nc1cn2cc(C)nc2c(C)n1 (centres unmarked) [Compound 91], the activation at 5 µM was < 50%.
